Data as given in US20230201870A1, “PLASMA COATING METHOD AND APPARATUS FOR BIOLOGICAL SURFACE MODIFICATION” (MOLECULAR PLASMA GROUP S.A., priority 2020, published 2023).
Like-named read-outs stand apart in the source and are kept apart here.

What was measured:
Type in all cases: cell-based
Bacteriophage MS2 = experiment: Viral load reduction test (ASTM E2721-16, MS2 in place of Influenza A) on plasma-coated substrate
[1] = tested on: Staphylococcus aureus (gram-positive); experiment: Antibacterial activity of plasma-coated material (OECD guideline, ISO 22197/20743), gram-positive; conditions: S. aureus
[2] = tested on: Escherichia coli (gram-negative); experiment: Antibacterial activity of plasma-coated material (OECD guideline, ISO 22197/20743), gram-negative; conditions: E. coli
[3] = plasma coating from precursor on Tyvek substrate, MS2 phages, vs untreated control, LOD = limit of detection
[4] = PPNW substrate (polypropylene nonwoven, 25 g/m^2)
[5] = synthetic textile substrate (Tyvek)

Molecule | LOG Reduction (Bacteriophage MS2; [3]) | %Gram+ bacteria reduced [1, 4] [%] | Gram+ log reduction [1, 4] [log] | %Gram+ bacteria reduced [1, 5] [%] | Gram+ log reduction [1, 5] [log] | % Gram-bacteria reduced [2, 4] [%] | Gram-log reduction [2, 4] [log] | % Gram-bacteria reduced [2, 5] [%] | Gram-log reduction [2, 5] [log] | LOG Reduction (Bacteriophage MS2)
C=CC(=O)NCCC[N+](C)(C)C.[Cl-] [APTAC, (3-Acrylamidopropyl)trimethylammonium chloride] | 2.1 log | – | – | – | – | – | – | – | – | –
O=C(O)CC(O)(CC(=O)O)C(=O)O [Citric acid] | > 5.0 (LOD) log | > 99.995 | > 4.3 | > 99.98 | > 3.8 | > 99.999 | > 5.0 | 97.5 | 1.6 | –
C=C(C)C(=O)OCCN(C)C [DIMAEMA, 2-(N,N-dimethylamino)ethyl methacrylate] | – | > 99.994 | > 4.2 | > 99.95 | > 3.3 | > 99.9996 | > 5.4 | 20.6 | 0.1 | –
CCCCCCCCCCCCCCCCCC[N+](C)(C)CCC[Si](OC)(OC)OC.[Cl-] [SiQAM, Dimethyloctadecyl[3-(trimethoxysilyl)propyl] ammonium chloride solution] | 1.56 log | > 99.994 | > 4.2 | > 99.95 | > 3.3 | > 99.9996 | > 5.4 | > 98.7 | > 1.9 | –
Benzalkonium chloride [reference compound] | – | > 99.994 | > 4.2 | > 99.5 | > 3.3 | – | 5.4 | – | 1.9 | > 3.8 (LOD) log
